According to patent US20100247551A1, “Use of Lipocalin 2 in the Regulation of Insulin Sensitivity” (priority 2006, published 2010):

How the values were obtained:
[1] = test system: Lcn2 expression in 3T3-L1 adipocytes; assay: Lcn2 mRNA expression in mature 3T3-L1 adipocytes (Q-PCR); assay type: cell-based, mouse; settings: Dex 1 μM or TNF 4 ng/μL (FIG. 1)
Description: Mature 3T3-L1 adipocytes were treated with Dex (1 μM) or TNF (4 ng/μL) in the presence or absence of rosiglitazone (Rosi; 1 μM), and Lcn2 mRNA levels were measured by Q-PCR. Data presented as mean±SD, *p<0.05, ***p=0.005 relative to no Rosi.

H4IIe hepatocytes = assay: Insulin resistance in H4IIe hepatocytes (glucose production, glucose-6-phosphatase mRNA expression); assay type: cell-based; settings: liganded Lcn2 10 nM, with or without insulin 100 nM (FIG. 6)
Description: FIG. 6A: Left, Glucose production induced by liganded Lcn2 (10 nM) or Dex (250 nM) in the presence or absence of insulin (100 nM). Right, effect of liganded Lcn2 (10 nM) or Dex (250 nM) on glucose-6-phosphatase mRNA expression in the presence or absence of insulin (100 nM). FIG. 6B: Dose response of liganded Lcn2 on glucose-6-phosphatase expression. FIG. 6C: Effect of apo-Lcn2 on glucose-6-phosphatase expression. For all panels, mean±SD, p<0.05, **p<0.01, n=3.

insulin resistance (glucose production, glucose-6-phosphatase expression) (H4IIe hepatocytes)	Molecule	Lcn2 expression [1]
	TNF-α	dramatically induced
induces insulin resistance	recombinant Lcn2: exogenous recombinant lipocalin 2 protein (protein, UniProt P80188 21-198, looked up) Neutrophil …: QDSTSDLIPAPPLSKVPLQQNFQDNQFQGKWYVVGLAGNAILREDKDPQKMYATIYELKEDKSYNVTSVLFRKKKCDYWIRTFVPGCQPGEFTLGNIKSYPGLTSYLVRVVSTNYNQHAMVFFKKVSQNREYFKITLYGRTKELTSELKENFIRFSKSLGLPENHIVFPVPIDQCIDG	
